Measurements from patent US8034314B2, “Photoreactive compound specifically binding to calcium binding proteins” (priority 2004, dated 2011).

Experiments:
Pyruvate kinase = target: T1, Pyruvate kinase (Oryctolagus cuniculus, UniProt P11974); experiment: Pyruvate kinase activity; format: biochemical; conditions: AzRu 100 μM; mean ± SEM
T1 construct: purchased Sigma
Source text: (§1) Unlabelled ryanodine was obtained from Calbiochem. […] Ruthenium chloride was purchased from Aldrich.

Luciferase = target: T2, Luciferase (Photinus pyralis, UniProt P08659); experiment: Luciferase activity; format: biochemical; conditions: mean ± SEM
T2 construct: purchased Sigma
Source text: as §1

(Na+/K+)ATPase = (Na+/K+)ATPase activity; format: biochemical; conditions: mean ± SEM
K+ channel (KCKN0) = K+ channel (KCKN0) (Drosophila melanogaster, UniProt Q94526); experiment: K+ channel (KCKN0) activity; format: biochemical; conditions: AzRu 20 μM; mean ± SEM
Glutamate dehydrogenase = Glutamate dehydrogenase activity; format: biochemical; conditions: AzRu 100 μM; mean ± SEM
Source text: as §1

Lactate dehydrogenase = Lactate dehydrogenase activity; format: biochemical; conditions: AzRu 100 μM; mean ± SEM
Source text: as §1

[1] = tested on: glucose 6-phosphate dehydrogenase; experiment: G-6-P dehydrogenase activity; format: biochemical; conditions: AzRu 100 μM; mean ± SEM
Source text: as §1

[2] = tested on: glyceraldehyde 3-phosphate dehydrogenase; experiment: GAP dehydrogenase activity; format: biochemical; conditions: AzRu 100 μM; mean ± SEM
Source text: as §1

[3] = tested on: Succinate-cytochrome c oxido-reductase; experiment: Electron transport from succinate to cytochrome c in mitochondria; format: biochemical, rat
Description: Sarcoplasmic reticulum (SR) membranes were prepared from rabbit fast twitch skeletal muscle as described by Saito [Saito et al.: J. Cell Biol. 99 (1984) 875-85]. Mitochondria were isolated from rat liver as described by us previously [Gincel D. et al.: Biochem J. 358 (2001) 147-55]. VDAC was purified by a method developed in our laboratory, using columns of hydroxyapatite and reactive red agarose [Gincel D. et al.: J. Bioenerget. Biomembr. 32 (2000) 571-83].
Ca^2+-accumulation in freshly prepared mitochondria (0.5 mg/ml) was assayed for 1 to 20 minutes at 30° C. in the presence of 225 mM mannitol, 75 mM sucrose, 120 μM CaCl2 (containing 3×10^4 cpm/nmol ^45Ca^2+), 5 mM HEPES/KOH pH 7.0, and 5 mM succinate with 0.1 mM Pi, or 4 mM MgCl2 with 3 mM ATP. The Ca^2+-uptake was terminated by rapid Millipore filtration, followed by a wash with 5 ml of 0.15 M KCl. The Ca^2+-accumulation in SR was determined as described previously [Shoshan-Barmatz V. & Shaineberg A.: Biochim. Biophys. Acta 1065 (1991) 82-8]. Electron transport from succinate to cytochrome c was described in above cited article [Gincel D. et al.: J. Bioenerget. Biomembr. 32 (2000) 571-83].
The effect of AzRu on mitochondrial process of electron transport from the donor succinate to the acceptor cytochrome c was characterized as described above. […]

Lysozyme = Lysozyme (Gallus gallus, UniProt P00698); experiment: Lysozyme activity; format: biochemical; conditions: AzRu 100 μM; mean ± SEM
Aldolase = target: T3, Aldolase (Oryctolagus cuniculus, UniProt P00883); experiment: Aldolase activity; format: biochemical; conditions: AzRu 100 μM; mean ± SEM
T3 construct: purchased Sigma
Source text: as §1

Catalase = target: T4, Catalase (Bos taurus, UniProt P00432); experiment: Catalase activity; format: biochemical, bovine; conditions: AzRu 100 μM; mean ± SEM
T4 construct: bovine liver catalase; purchased Sigma; host or cells: bovine liver
Source text: as §1

Choline oxidase = target: T5, Choline oxidase (Arthrobacter globiformis, UniProt Q7X2H8); experiment: Choline oxidase activity; format: biochemical; conditions: AzRu 100 μM; mean ± SEM
T5 construct: purchased Sigma
Source text: as §1

[4] = tested on: U-937 human monocytic cell line; experiment: STS-induced apoptotic cell death of U-937 cells (acridine orange/ethidium bromide staining); format: cell-based; conditions: for Reduction of STS-activated apoptotic cell death: AzRu 10 μM added 18 h before STS 1.25 μM
Description: The U-937 human monocytic cell line was grown under an atmosphere of 95% air and 5% CO2 in RPMI 1640 supplemented with 10% fetal calf serum (FCS), 1 mM L-glutamine, 100 U/ml penicillin, and 100 μg/ml streptomycin. Cells were plated at a density of 5.4×10^4 cells/cm^2 in 24-well plates and then incubated with or without AzRu for 18 hr before exposure to 1.25 μM staurosporine (STS) to induce apoptosis. Cell viability was analyzed 5 and 7 hrs after STS addition by staining with 100 μg/ml acridine orange (AcOr) and 100 μg/ml ethidium bromide (EtBr) in PBS. The cells were then visualized by fluorescence microscopy (Olympus IX51) and images were recorded on an Olympus DP70 camera, using an SWB filter.
AzRu had no effect on the viability of the cells that were not exposed to STS. In FIG. 13 A, U-937 cells were incubated without (a, c) or with AzRu (10 μM) (b,d) for 18 hrs and thereafter were exposed to STS (1.25 μM) (c and d). After five hours the cells were stained with acridine orange and ethidium bromide. Arrows indicate cells in early apoptotic state, represented as degraded nucleus, but with intact cell membrane (stained by acridine orange). Arrowheads indicate a late apoptotic state, as shown by the presence of a degraded nucleus (stained by both acridine orange and ethidium bromide). Scale bar, 20 μm. In FIG. 13 B, quantitative analysis of apoptotic cell death in control cells and cells exposed to AzRu was assessed 5 and 7 hr after their exposure to STS (1.25 by ANOVA and t-test. P<0.001 was considered statistically significant (***). Data are the means±SEM, n=3. In each independent experiment, approximately 200 cells were counted for each treatment.

Ca2+-dependent proteins = experiment: Activities of Ca2+-dependent proteins (summary of Table 1); format: biochemical; conditions: at ≦20 μM
[5] = tested on: Mg2+-dependent proteins and the Zn2+-sensitive KCNK0 channel; experiment: Activities of Mg2+-dependent proteins and Zn2+-sensitive KCNK0 channel (summary of Table 1); format: biochemical; conditions: at 100 μM
Alkaline phosphatase = conditions: AzRu 100 μM; mean ± SEM
Source text: Aldolase, alkaline phosphatase, ATP, bovine liver catalase, choline oxidase, CM-cellulose, n-decane, glucose 6-phosphate dehydrogenase, glutamate dehydrogenase, glyceraldehyde 3-phosphate dehydrogenase, Hepes, yeast hexokinase, lactate dehydrogenase, leupeptin, luciferase, mannitol, horseradish peroxidase, PMSF, pyruvate kinase, soybean asolectin, sucrose, Tris and Triton X-100 were purchased from Sigma (St. Louis, Mo., USA). [^45Ca], [^103Ru] and [^3H]ryanodine were purchased from NEN® Life Science Products, Inc. (Boston, USA). Unlabelled ryanodine was obtained from Calbiochem. Sephadex LH-20 was purchased from Amersham Biosciences. n-Octyl-β-D-glucopyranoside (β-OG) was obtained from Bachem AG (Germany). Lauryl-(dimethyl)-amineoxide (LDAO) and ruthenium red (98% pure) were obtained from Fluka (Chemie, GmbH). Ruthenium chloride was purchased from Aldrich. Hydroxyapatite (Bio-Gel HTP) was purchased from Bio-Rad Laboratories (Hercules, Calif.) and Celite from Merck. Synthetic firefly D-luciferin reagent was purchased from Biosynth AG.

T2 sequence (P08659 whole entry): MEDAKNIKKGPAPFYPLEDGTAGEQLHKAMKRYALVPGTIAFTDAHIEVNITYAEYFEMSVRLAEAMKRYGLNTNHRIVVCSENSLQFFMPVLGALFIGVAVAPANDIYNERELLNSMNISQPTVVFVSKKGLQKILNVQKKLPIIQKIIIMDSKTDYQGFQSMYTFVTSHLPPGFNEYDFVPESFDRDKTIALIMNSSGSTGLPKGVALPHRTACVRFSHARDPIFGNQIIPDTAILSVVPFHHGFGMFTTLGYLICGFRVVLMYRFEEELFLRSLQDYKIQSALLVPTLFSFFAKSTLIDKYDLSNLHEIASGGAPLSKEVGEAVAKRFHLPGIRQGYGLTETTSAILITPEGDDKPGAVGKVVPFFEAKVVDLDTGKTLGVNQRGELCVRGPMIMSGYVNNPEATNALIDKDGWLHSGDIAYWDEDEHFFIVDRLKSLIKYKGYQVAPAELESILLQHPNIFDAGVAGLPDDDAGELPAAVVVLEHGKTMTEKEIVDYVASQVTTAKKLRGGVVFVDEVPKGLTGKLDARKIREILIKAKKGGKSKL
T5 sequence (Q7X2H8 whole entry, species assumed): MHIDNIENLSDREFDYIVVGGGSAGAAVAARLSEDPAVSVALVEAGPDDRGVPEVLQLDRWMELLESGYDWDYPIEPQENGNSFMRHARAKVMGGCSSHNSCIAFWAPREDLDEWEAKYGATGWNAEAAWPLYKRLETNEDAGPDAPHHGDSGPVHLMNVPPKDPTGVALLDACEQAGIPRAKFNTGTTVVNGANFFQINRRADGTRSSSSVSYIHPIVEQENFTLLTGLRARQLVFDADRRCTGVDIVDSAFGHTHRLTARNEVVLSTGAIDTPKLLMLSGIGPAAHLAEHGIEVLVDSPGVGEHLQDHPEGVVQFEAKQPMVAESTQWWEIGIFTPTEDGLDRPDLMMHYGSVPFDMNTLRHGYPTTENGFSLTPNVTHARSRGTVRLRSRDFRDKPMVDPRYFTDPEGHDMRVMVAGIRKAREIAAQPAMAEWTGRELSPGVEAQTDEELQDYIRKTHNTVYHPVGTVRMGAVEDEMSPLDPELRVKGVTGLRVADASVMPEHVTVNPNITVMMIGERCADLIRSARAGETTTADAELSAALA
Chain of Lysozyme (P00698 19-147): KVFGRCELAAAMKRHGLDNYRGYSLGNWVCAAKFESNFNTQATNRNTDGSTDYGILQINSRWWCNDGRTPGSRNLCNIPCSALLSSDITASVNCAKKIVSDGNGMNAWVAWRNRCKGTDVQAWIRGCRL
T4 sequence (P00432 whole entry): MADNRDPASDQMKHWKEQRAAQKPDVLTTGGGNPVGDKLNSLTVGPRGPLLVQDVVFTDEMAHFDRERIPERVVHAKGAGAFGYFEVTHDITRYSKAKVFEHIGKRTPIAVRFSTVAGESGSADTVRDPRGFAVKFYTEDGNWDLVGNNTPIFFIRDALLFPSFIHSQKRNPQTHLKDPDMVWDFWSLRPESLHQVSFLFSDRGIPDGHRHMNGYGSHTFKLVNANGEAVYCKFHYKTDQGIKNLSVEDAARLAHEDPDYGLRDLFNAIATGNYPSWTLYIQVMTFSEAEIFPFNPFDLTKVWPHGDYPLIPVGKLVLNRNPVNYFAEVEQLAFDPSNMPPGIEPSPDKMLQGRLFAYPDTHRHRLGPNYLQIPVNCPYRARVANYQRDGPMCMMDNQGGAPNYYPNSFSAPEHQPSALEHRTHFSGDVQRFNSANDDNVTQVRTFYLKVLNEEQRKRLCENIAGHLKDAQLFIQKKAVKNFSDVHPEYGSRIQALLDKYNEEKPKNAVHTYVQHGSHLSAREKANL
Chain of K+ channel (KCKN0) (Q94526 whole entry): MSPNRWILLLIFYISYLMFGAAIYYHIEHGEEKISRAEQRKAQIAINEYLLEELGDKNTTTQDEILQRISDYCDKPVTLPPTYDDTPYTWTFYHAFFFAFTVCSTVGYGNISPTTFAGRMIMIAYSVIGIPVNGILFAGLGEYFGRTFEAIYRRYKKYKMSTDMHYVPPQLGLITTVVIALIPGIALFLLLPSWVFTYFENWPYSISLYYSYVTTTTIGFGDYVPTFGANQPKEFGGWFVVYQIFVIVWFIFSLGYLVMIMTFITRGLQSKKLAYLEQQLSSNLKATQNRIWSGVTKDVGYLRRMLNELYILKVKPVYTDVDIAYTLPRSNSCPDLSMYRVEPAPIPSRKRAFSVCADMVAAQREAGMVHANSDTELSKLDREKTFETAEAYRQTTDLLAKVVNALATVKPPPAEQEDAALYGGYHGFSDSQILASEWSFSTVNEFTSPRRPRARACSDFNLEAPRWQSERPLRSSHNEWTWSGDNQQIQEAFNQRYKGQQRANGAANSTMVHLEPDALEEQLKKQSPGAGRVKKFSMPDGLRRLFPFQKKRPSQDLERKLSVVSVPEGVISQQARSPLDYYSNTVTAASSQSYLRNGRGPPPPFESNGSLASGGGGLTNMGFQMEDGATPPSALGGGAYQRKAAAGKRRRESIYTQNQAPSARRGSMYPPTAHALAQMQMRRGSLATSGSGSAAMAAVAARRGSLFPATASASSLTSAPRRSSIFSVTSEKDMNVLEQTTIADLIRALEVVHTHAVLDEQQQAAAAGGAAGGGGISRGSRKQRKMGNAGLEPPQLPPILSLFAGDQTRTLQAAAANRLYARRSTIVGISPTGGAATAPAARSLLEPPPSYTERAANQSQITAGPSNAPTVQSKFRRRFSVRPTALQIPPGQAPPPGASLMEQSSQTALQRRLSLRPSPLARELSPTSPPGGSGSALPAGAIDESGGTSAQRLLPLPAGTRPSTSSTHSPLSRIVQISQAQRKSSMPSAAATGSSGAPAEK
T3 sequence (P00883 2-364 limits assumed): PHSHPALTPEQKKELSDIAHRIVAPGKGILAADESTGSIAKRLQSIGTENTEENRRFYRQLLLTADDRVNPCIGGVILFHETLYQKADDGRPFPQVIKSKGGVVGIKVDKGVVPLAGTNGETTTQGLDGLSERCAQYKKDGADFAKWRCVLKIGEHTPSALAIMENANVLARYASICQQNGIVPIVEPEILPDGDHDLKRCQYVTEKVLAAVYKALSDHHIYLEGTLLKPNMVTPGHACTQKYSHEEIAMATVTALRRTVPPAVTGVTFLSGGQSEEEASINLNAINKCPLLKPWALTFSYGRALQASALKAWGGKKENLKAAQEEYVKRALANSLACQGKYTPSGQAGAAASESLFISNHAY
T1 sequence (P11974 2-531 limits assumed): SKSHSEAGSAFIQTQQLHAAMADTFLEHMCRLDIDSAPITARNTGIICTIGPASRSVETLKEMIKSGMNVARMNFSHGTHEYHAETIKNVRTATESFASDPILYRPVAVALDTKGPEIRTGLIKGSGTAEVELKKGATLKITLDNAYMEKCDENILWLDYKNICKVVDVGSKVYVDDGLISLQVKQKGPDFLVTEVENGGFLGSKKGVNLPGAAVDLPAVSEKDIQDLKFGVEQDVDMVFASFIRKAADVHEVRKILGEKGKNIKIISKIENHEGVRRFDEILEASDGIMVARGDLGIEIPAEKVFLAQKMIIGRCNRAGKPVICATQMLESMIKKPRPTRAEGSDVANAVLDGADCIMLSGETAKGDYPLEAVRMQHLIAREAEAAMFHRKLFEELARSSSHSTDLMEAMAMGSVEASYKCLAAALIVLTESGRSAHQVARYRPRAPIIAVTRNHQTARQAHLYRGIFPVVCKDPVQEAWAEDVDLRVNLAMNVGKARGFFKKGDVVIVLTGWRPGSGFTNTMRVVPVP

Question: Which results are given for azido-ruthenium [AzRu]?
Answer: Activity (% of control), Pyruvate kinase (Pyruvate kinase): 81 ± 6 % of control; Activity (% of control), Luciferase (Luciferase; AzRu 20 μM): 97 ± 1 % of control; Activity (% of control), Luciferase (Luciferase; AzRu 100 μM): 67 ± 3 % of control; Activity (% of control), (Na+/K+)ATPase ((Na+/K+)ATPase; AzRu 20 μM): 92 ± 5 % of control; Activity (% of control), (Na+/K+)ATPase ((Na+/K+)ATPase; AzRu 100 μM): 71 ± 4 % of control; Activity (% of control), K+ channel (KCKN0) (K+ channel (KCKN0)): 100 ± 0.3 % of control; Activity (% of control), Glutamate dehydrogenase (Glutamate dehydrogenase): 101 ± 5 % of control; Activity (% of control), Lactate dehydrogenase (Lactate dehydrogenase): 91 ± 4 % of control; Activity (% of control), G-6-P dehydrogenase [1]: 101 ± 7 % of control; Activity (% of control), GAP dehydrogenase [2]: 102 ± 5 % of control; Activity (% of control), Succinate-cytochrome c oxido-reductase ([3]; AzRu 100 μM, mean ± SEM): 95 ± 5 % of control; Effect on electron transfer from succinate to cytochrome c in mitochondria ([3]; isolated mitochondria, FIG. 7): not affected; Activity (% of control), Lysozyme (Lysozyme): 101 ± 3 % of control; Activity (% of control), Aldolase (Aldolase): 78 ± 7 % of control; Activity (% of control), Catalase (Catalase): 118 ± 8 % of control; Activity (% of control), Choline oxidase (Choline oxidase): 85 ± 3 % of control; Reduction of STS-activated apoptotic cell death ([4]; 5 h of exposure to STS): about 75%; Reduction of STS-activated apoptotic cell death ([4]; 7 h of exposure to STS): ~47%; Effect on viability of cells not exposed to STS ([4]; U-937 cells, no STS): no effect; Inhibition of activities of Ca2+-dependent proteins (Ca2+-dependent proteins): up to 90%; Inhibition of activities of Mg2+-dependent proteins and Zn2+-sensitive KCNK0 channel [5]: ~30%; Activity (% of control), Alkaline phosphatase (Alkaline phosphatase): 86 ± 5 % of control
